Activity calls are given as the source filed them. The calls are words filed in the database; no cut-off is given here.

From ChEMBL document CHEMBL3822442, “Synthesis and Pharmacological Characterization of Novel Glucagon-like Peptide-2 (GLP-2) Analogues with Low Systemic Clearance” (J Med Chem, 2016) come the findings set out here.

One data set relates to HEK293. Description: Selectivity ratio of EC50 for human GLP1R expressed in HEK293 cells to EC50 for human GLP2R expressed in HEK293. It counts as cell-based.
The target in data set [1] is Glucagon receptor (Homo sapiens) (UniProt P47871). Kind of data set: Agonist activity at human GCGR expressed in HEK293 cells up to 1000 nM after 5 hrs by luciferase reporter gene assay. Type of data set: cell-based.
Data set [2] has as its target T1, Glucagon-like peptide 2 receptor (Homo sapiens, UniProt O95838).
T1 sequence (O95838 whole entry): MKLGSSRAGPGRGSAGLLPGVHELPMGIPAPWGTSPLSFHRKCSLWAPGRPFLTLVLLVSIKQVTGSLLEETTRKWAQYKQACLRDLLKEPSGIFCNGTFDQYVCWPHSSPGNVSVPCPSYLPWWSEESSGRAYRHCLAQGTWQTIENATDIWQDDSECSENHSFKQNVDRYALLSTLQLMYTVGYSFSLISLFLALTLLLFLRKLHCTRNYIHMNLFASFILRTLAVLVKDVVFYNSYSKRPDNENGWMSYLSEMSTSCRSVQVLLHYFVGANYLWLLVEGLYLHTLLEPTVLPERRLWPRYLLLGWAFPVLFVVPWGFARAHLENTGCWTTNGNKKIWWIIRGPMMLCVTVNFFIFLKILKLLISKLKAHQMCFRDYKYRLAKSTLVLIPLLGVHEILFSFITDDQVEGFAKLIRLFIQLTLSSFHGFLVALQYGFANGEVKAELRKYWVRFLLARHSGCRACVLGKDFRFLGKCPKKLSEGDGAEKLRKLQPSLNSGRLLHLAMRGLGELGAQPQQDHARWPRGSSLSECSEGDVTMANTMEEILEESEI
Description: Agonist activity at human GLP2R expressed in HEK293 cells after 5 hrs by luciferase reporter gene assay. It counts as cell-based.

For data set [3], the target named is T2, Glucagon-like peptide 1 receptor (Homo sapiens, UniProt P43220). Description: Agonist activity at human GLP1R expressed in HEK293 cells after 5 hrs by luciferase reporter gene assay. It counts as cell-based.
The target of data set [4] is T2, Glucagon-like peptide 1 receptor. Kind of data set: Agonist activity at human GLP1R expressed in HEK293 cells at 30 nM after 5 hrs by luciferase reporter gene assay. It counts as cell-based.
Data set [5] in a line: Systemic clearance in Sprague-Dawley rat at 0.2 mg/kg, iv through cassette dosing measured up to 300 mins by LC/MS/MS analysis. It counts as ADME, organism-based. The conditions noted are these: in vivo.
In data set [6] the target is Glucagon receptor (Homo sapiens) (UniProt P47871). Description: Agonist activity at human GCGR expressed in HEK293 cells after 5 hrs by luciferase reporter gene assay. Type of data set: cell-based.

Glucagon receptor (Homo sapiens), sequence (P47871 whole entry): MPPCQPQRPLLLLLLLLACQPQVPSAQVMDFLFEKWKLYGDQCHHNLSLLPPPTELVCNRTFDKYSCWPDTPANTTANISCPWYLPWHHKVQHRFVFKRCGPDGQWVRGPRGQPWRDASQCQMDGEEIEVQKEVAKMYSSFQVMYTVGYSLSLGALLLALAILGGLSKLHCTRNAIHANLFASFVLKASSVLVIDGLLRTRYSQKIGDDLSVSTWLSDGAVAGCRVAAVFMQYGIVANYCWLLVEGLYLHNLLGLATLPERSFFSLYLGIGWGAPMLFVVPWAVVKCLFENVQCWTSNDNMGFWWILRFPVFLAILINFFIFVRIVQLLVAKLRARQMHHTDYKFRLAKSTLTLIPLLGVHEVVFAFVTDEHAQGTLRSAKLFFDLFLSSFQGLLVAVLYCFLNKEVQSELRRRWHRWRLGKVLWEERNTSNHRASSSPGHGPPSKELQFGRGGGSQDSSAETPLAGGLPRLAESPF
T2 sequence (P43220 whole entry): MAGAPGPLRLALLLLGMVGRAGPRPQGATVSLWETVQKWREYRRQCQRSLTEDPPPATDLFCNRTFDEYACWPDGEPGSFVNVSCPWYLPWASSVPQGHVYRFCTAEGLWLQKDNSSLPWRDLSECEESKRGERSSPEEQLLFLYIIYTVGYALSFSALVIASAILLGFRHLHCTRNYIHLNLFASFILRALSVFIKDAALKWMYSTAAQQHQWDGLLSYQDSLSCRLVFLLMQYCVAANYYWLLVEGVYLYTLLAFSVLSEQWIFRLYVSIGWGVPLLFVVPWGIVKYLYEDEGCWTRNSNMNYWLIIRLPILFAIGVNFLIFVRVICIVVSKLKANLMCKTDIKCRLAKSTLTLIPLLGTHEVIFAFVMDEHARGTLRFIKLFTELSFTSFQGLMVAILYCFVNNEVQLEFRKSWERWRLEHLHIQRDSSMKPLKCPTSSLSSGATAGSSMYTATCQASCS

In the case of `CCCCC(NC(=O)[C@H](CCC(=O)O)NC(=O)[C@H](CC(=O)O)NC(=O)[C@H](CO)NC(=O)[C@H](Cc1ccccc1)NC(=O)[C@H](CO)NC(=O)CNC(=O)[C@H](CC(=O)O)NC(=O)CNC(=O)[C@H](N)Cc1cnc[nH]1)C(=O)N[C@@H](CC(N)=O)C(=O)N[C@H](C(=O)N[C@H](C(=O)N[C@@H](CC(C)C)C(=O)N[C@@H](CC(=O)O)C(=O)NC(Cc1ccc(N)cc1)C(=O)N[C@H](CC(C)C)C(=O)N[C@H](C)C(=O)N[C@H](C)C(=O)N[C@H](CCCNC(=N)N)C(=O)N[C@H](CC(=O)O)C(=O)N[C@H](Cc1ccccc1)C(=O)N[C@@H](C(=O)N[C@H](CC(N)=O)C(=O)N[C@@H](Cc1c[nH]c2ccccc12)C(=O)N[C@@H](CC(C)C)C(=O)N[C@H](C(=O)N[C@@H](CCC(N)=O)C(=O)N[C@H](C(=O)N[C@H](CCCCN)C(N)=O)[C@@H](C)O)[C@H](C)CC)[C@@H](C)CC)[C@H](C)CC)[C@@H](C)O` (stereo partly drawn), the Ratio EC50 in the data set with HEK293 is greater than 7600. The outcome in data set [1] was inactive.
Turning to `CCCCC(NC(=O)[C@H](CCC(=O)O)NC(=O)[C@H](CC(=O)O)NC(=O)[C@H](CO)NC(=O)[C@H](Cc1ccccc1)NC(=O)[C@H](CO)NC(=O)CNC(=O)[C@H](CC(=O)O)NC(=O)CNC(=O)[C@H](N)Cc1cnc[nH]1)C(=O)N[C@@H](CC(N)=O)C(=O)N[C@H](C(=O)N[C@H](C(=O)N[C@@H](CC(C)C)C(=O)N[C@@H](CC(=O)O)C(=O)NC(Cc1ccc(-c2ccccc2)cc1)C(=O)N[C@H](CC(C)C)C(=O)N[C@H](C)C(=O)N[C@H](C)C(=O)N[C@H](CCCNC(=N)N)C(=O)N[C@H](CC(=O)O)C(=O)N[C@H](Cc1ccccc1)C(=O)N[C@@H](C(=O)N[C@H](CC(N)=O)C(=O)N[C@@H](Cc1c[nH]c2ccccc12)C(=O)N[C@@H](CC(C)C)C(=O)N[C@H](C(=O)N[C@@H](CCC(N)=O)C(=O)N[C@H](C(=O)N[C@H](CCCCN)C(N)=O)[C@@H](C)O)[C@H](C)CC)[C@@H](C)CC)[C@H](C)CC)[C@@H](C)O` (stereo partly drawn), the Ratio EC50 in the data set with HEK293 is greater than 2800. Besides, the result in data set [1] was inactive.
For the compound `CCCCC(NC(=O)[C@H](CCC(=O)O)NC(=O)[C@H](CC(=O)O)NC(=O)[C@H](CO)NC(=O)[C@H](Cc1ccccc1)NC(=O)[C@H](CO)NC(=O)CNC(=O)[C@H](CC(=O)O)NC(=O)CNC(=O)[C@@H](N)Cc1cnc[nH]1)C(=O)N[C@H](Cc1ccccc1Cl)C(=O)N[C@H](C(=O)N[C@H](C(=O)N[C@@H](CC(C)C)C(=O)N[C@@H](CC(=O)O)C(=O)N[C@@H](CC(N)=O)C(=O)N[C@@H](CC(C)C)C(=O)N[C@@H](C)C(=O)N[C@@H](C)C(=O)N[C@@H](CCCNC(=N)N)C(=O)N[C@@H](CC(=O)O)C(=O)N[C@@H](Cc1ccccc1)C(=O)N[C@H](C(=O)N[C@@H](CC(N)=O)C(=O)N[C@@H](Cc1c[nH]c2ccccc12)C(=O)N[C@@H](CC(C)C)C(=O)N[C@H](C(=O)N[C@@H](CCC(N)=O)C(=O)N[C@H](C(=O)N[C@@H](CCCCN)C(N)=O)[C@@H](C)O)[C@@H](C)CC)[C@@H](C)CC)[C@@H](C)CC)[C@@H](C)O` (stereo partly drawn), the EC50 was 0.11 nM in data set [2] and 100 nM in data set [3]. In data set [4], the Efficacy was 36%. The Ratio EC50 in the data set on HEK293 amounted to 900. In addition, the clearance in data set [5] came out at 0.73 mL/min/kg. Further, in data set [6], the result was inactive.
On to `CCCCC(NC(=O)[C@H](CCC(=O)O)NC(=O)[C@H](CC(=O)O)NC(=O)[C@H](CO)NC(=O)[C@H](Cc1ccccc1)NC(=O)[C@H](CO)NC(=O)CNC(=O)[C@H](CC(=O)O)NC(=O)CNC(=O)[C@@H](N)Cc1cnc[nH]1)C(=O)N[C@H](Cc1cccs1)C(=O)N[C@H](C(=O)N[C@H](C(=O)N[C@@H](CC(C)C)C(=O)N[C@@H](CC(=O)O)C(=O)N[C@@H](CC(N)=O)C(=O)N[C@@H](CC(C)C)C(=O)N[C@@H](C)C(=O)N[C@@H](C)C(=O)N[C@@H](CCCNC(=N)N)C(=O)N[C@@H](CC(=O)O)C(=O)N[C@@H](Cc1ccccc1)C(=O)N[C@H](C(=O)N[C@@H](CC(N)=O)C(=O)N[C@@H](Cc1c[nH]c2ccccc12)C(=O)N[C@@H](CC(C)C)C(=O)N[C@H](C(=O)N[C@@H](CCC(N)=O)C(=O)N[C@H](C(=O)N[C@@H](CCCCN)C(N)=O)[C@@H](C)O)[C@@H](C)CC)[C@@H](C)CC)[C@@H](C)CC)[C@@H](C)O` (stereo partly drawn), for which the EC50 came out at 0.1 nM in data set [2] and 80 nM in data set [3]. For the same compound, the Efficacy in data set [4] turned out to be 49%. Besides, the Ratio EC50 with HEK293 came out at 800. Besides, in data set [5], the clearance turned out to be 1.1 mL/min/kg. In data set [6], the result was inactive.
As to `CCCCC(NC(=O)[C@H](CCC(=O)O)NC(=O)[C@H](CC(=O)O)NC(=O)[C@H](CO)NC(=O)[C@H](Cc1ccccc1)NC(=O)[C@H](CO)NC(=O)CNC(=O)[C@H](CC(=O)O)NC(=O)CNC(=O)[C@@H](N)Cc1cnc[nH]1)C(=O)N[C@@H](Cc1ccccc1)C(=O)N[C@H](C(=O)N[C@H](C(=O)N[C@@H](CC(C)C)C(=O)N[C@@H](CC(=O)O)C(=O)N[C@@H](CC(N)=O)C(=O)N[C@@H](CC(C)C)C(=O)N[C@@H](C)C(=O)N[C@@H](C)C(=O)N[C@@H](CCCNC(=N)N)C(=O)N[C@@H](CC(=O)O)C(=O)N[C@@H](Cc1ccccc1)C(=O)N[C@H](C(=O)N[C@@H](CC(N)=O)C(=O)N[C@@H](Cc1c[nH]c2ccccc12)C(=O)N[C@@H](CC(C)C)C(=O)N[C@H](C(=O)N[C@@H](CCC(N)=O)C(=O)N[C@H](C(=O)N[C@@H](CCCCN)C(N)=O)[C@@H](C)O)[C@@H](C)CC)[C@@H](C)CC)[C@@H](C)CC)[C@@H](C)O` (stereo partly drawn), the EC50 in data set [2] came out at 0.15 nM; in data set [3] it was 16 nM. The Efficacy in data set [4] came to 94%. Besides, the Ratio EC50 in the data set with HEK293 is 100. The clearance in data set [5] was determined as 1.8 mL/min/kg. Besides, the outcome in data set [6] was inactive.
As for `CCCCC(NC(=O)[C@H](CCC(=O)O)NC(=O)[C@H](CC(=O)O)NC(=O)[C@H](CO)NC(=O)[C@H](Cc1ccccc1)NC(=O)[C@H](CO)NC(=O)CNC(=O)[C@H](CC(=O)O)NC(=O)CNC(=O)[C@@H](N)Cc1cnc[nH]1)C(=O)N[C@H](Cc1ccsc1)C(=O)N[C@H](C(=O)N[C@H](C(=O)N[C@@H](CC(C)C)C(=O)N[C@@H](CC(=O)O)C(=O)N[C@@H](CC(N)=O)C(=O)N[C@@H](CC(C)C)C(=O)N[C@@H](C)C(=O)N[C@@H](C)C(=O)N[C@@H](CCCNC(=N)N)C(=O)N[C@@H](CC(=O)O)C(=O)N[C@@H](Cc1ccccc1)C(=O)N[C@H](C(=O)N[C@@H](CC(N)=O)C(=O)N[C@@H](Cc1c[nH]c2ccccc12)C(=O)N[C@@H](CC(C)C)C(=O)N[C@H](C(=O)N[C@@H](CCC(N)=O)C(=O)N[C@H](C(=O)N[C@@H](CCCCN)C(N)=O)[C@@H](C)O)[C@@H](C)CC)[C@@H](C)CC)[C@@H](C)CC)[C@@H](C)O` (stereo partly drawn), the EC50 came to 0.09 nM in data set [2] and 83 nM in data set [3]. The same compound had an Efficacy in data set [4] of 39%. Also, the Ratio EC50 in the data set on HEK293 stood at 920. This compound also yielded a clearance in data set [5] of 1.3 mL/min/kg. The result in data set [6] was inactive.
